Columns and labels:
7002 CD4+ clone 2 = experiment: IFN-γ production by CD4+ clone 2 stimulated with peptide- or protein-pulsed EBV-B cells; type: cell-based, human; settings: for IFN-γ production after stimulation with peptide of clone 2: 1 μg/ml peptide
Experimental: (§1) In order to confirm the efficacy of this protocol, dendritic cells were fed with the MAGE-3 protein, using conditions described above, to stimulate autologous CD4^+ T lymphocytes from hemochromatosis patient LB1158 or from melanoma patient 7002. After four restimulations, the specific production of IFN-γ by an aliquot of each of the microcultures stimulated with the autologous EBV-B cells loaded with MAGE-A3 were tested on day 35 for patient LB1158 and day 37 for patient 7002. For each individual, one positive microculture was cloned using autologous EBV-B cells as stimulating cells, either retrotransduced with MFG Ii MAGE-A3 for LB1158, or fed with protein MAGE-A3 for patient 7002. […] Specifically, autologous EBV-B cells were incubated for 20 h in the presence of 20 μg/ml of recombinant His-MAGE-A3 protein. Clone 22 (2500 cells) was incubated overnight with 5000 MAGE-A3 loaded EBV-B cells in round botton microwells in the presence or absence of monoclonal antibodies which recognize HLA-A,B,C (W6/32) or HLA-DR (2B6). IFN-γ secretion was measured after 20 h by ELISA (FIG. 15A).
(§2) Peptides corresponding to parts of MAGE-A3 (e.g., MAGE107-122, MAGE111-126, MAGE115-130, MAGE119-134) were tested for recognition by clone 2 and 22. HLA-DR13 EBV-B cells were pulsed for 2 h with different concentrations of these peptides. Clones 2 and 37 (2500 cells) were incubated with 5000 peptide pulsed cells in round-bottomed microwells for 20 h and assayed for IFN-γ production.
(§3) Autologous or allogeneic EBV-B cells were pulsed for 2 h with 1 μg/ml MAGE-A3119-134 peptide, and then washed. Clones 2 or 22 were incubated with 5000 peptide-pulsed EBV-B cells in round-bottomed microwells for 20 h and the clones' reactivity to the EBV-B cells was measured by ELISA as IFN-γ secretion. Experiments were performed in triplicate.
(§4) Unlike HLA-class I-restricted peptides, class II-restricted peptides usually vary in length and tolerate extensions at both the amino and carboxy termini, because they are not fixed by their ends in the groove. It is therefore difficult to define precisely the length of the antigenic peptide. Therefore a large number of MAGE-A3 peptides were tested at different concentrations (Tables IV and V). […] 2500 cells of clone 37 were then cocultured for 20 h in round-bottomed microwells with 5000 peptide-pulsed cells. IFN-γ released in the supernatant of the cocultures was measured in an ELISA assay. The experiments were performed in triplicate. […] Clones 2 and 22 (2500 cells) were then cocultured for 20 h in round-bottomed microwells with 5000 peptide-pulsed cells. IFN-γ released in the supernatant of the cocultures was measured in an ELISA assay. The experiments was performed twice in duplicates.

LB1158 CD4+ clone 22 = experiment: IFN-γ production by CD4+ clone 22 stimulated with peptide- or protein-pulsed EBV-B cells; type: cell-based, human; settings: for IFN-γ production after stimulation with peptide of clone 22: 1 μg/ml peptide
Experimental: as §1, §2, §3, §4

[1] = EBV-B cell line 7002, DR13 positive
[2] = EBV-B cell line BM16, DR13 negative
[3] = EBV-B cell line BOB, DR13 negative
[4] = EBV-B cell line BOLETH, DR13 negative
[5] = EBV-B cell line LB1118, DR13 positive
[6] = EBV-B cell line LB1158, DR13 positive
[7] = EBV-B cell line LB1622, DR13 positive
[8] = EBV-B cell line LB1859, DR13 positive
[9] = EBV-B cell line LB1861, DR13 positive
[10] = EBV-B cell line LB1869, DR13 positive
[11] = EBV-B cell line LKT3, DR13 negative
[12] = EBV-B cell line MZ2, DR13 positive
[13] = EBV-B cell line OLGA, DR13 negative
[14] = EBV-B cell line OMW, DR13 positive
[15] = EBV-B cell line RML, DR13 negative
[16] = EBV-B cell line RSH, DR13 negative
[17] = EBV-B cell line TAB089, DR13 negative
[18] = EBV-B cell line TISI, DR13 negative
[19] = EBV-B cell line VAF, DR13 negative
[20] = EBV-B cell line VET, DR13 negative

“FLLLKYRAREPVTKAE (listed as Homo sapiens) [MAGE-A3119-134]” was tested, and the “IFN-γ production after stimulation with peptide of clone 2” value (7002 CD4+ clone 2; [1]) was greater than 4000 pg/mL, the “IFN-γ production after stimulation with peptide of clone 2” value (7002 CD4+ clone 2; [2]) was 12 pg/mL and the “IFN-γ production after stimulation with peptide of clone 2” value (7002 CD4+ clone 2; [3]) was 59 pg/mL. The “IFN-γ production after stimulation with peptide of clone 2” value (7002 CD4+ clone 2; [4]) was 0 pg/mL, the “IFN-γ production after stimulation with peptide of clone 2” value (7002 CD4+ clone 2; [5]) was greater than 4000 pg/mL and the “IFN-γ production after stimulation with peptide of clone 2” value (7002 CD4+ clone 2; [6]) was greater than 4000 pg/mL. For the same molecule, the “IFN-γ production after stimulation with peptide of clone 2” value (7002 CD4+ clone 2; [7]) was 3993 pg/mL, the “IFN-γ production after stimulation with peptide of clone 2” value (7002 CD4+ clone 2; [8]) was greater than 4000 pg/mL and the “IFN-γ production after stimulation with peptide of clone 2” value (7002 CD4+ clone 2; [9]) was greater than 4000 pg/mL. For the same molecule, the “IFN-γ production after stimulation with peptide of clone 2” value (7002 CD4+ clone 2; [10]) was greater than 4000 pg/mL, the “IFN-γ production after stimulation with peptide of clone 2” value (7002 CD4+ clone 2; [11]) was 0 pg/mL and the “IFN-γ production after stimulation with peptide of clone 2” value (7002 CD4+ clone 2; [12]) was greater than 4000 pg/mL. For the same molecule, the “IFN-γ production after stimulation with peptide of clone 2” value (7002 CD4+ clone 2; [13]) was 0 pg/mL, the “IFN-γ production after stimulation with peptide of clone 2” value (7002 CD4+ clone 2; [14]) was 3153 pg/mL and the “IFN-γ production after stimulation with peptide of clone 2” value (7002 CD4+ clone 2; [15]) was 0 pg/mL. The “IFN-γ production after stimulation with peptide of clone 2” value (7002 CD4+ clone 2; [16]) was 0 pg/mL, the “IFN-γ production after stimulation with peptide of clone 2” value (7002 CD4+ clone 2; [17]) was 0 pg/mL and the “IFN-γ production after stimulation with peptide of clone 2” value (7002 CD4+ clone 2; [18]) was 4 pg/mL. For the same molecule, the “IFN-γ production after stimulation with peptide of clone 2” value (7002 CD4+ clone 2; [19]) was 0 pg/mL, the “IFN-γ production after stimulation with peptide of clone 2” value (7002 CD4+ clone 2; [20]) was 0 pg/mL and the “secretion of IFN-γ by clone 2” value (7002 CD4+ clone 2; peptide at 10 ng/ml, HLA-DR13 EBV-B cells) was “stimulated secretion of IFN-γ”. For the same molecule, the “IFN-γ production after stimulation with peptide of clone 22” value (shortened to “IFN-γ production … of clone 22”) (LB1158 CD4+ clone 22; [1]) was greater than 4000 pg/mL, the “IFN-γ production … of clone 22” value (LB1158 CD4+ clone 22; [2]) was 7 pg/mL and the “IFN-γ production … of clone 22” value (LB1158 CD4+ clone 22; [3]) was 46 pg/mL. For the same molecule, the “IFN-γ production … of clone 22” value (LB1158 CD4+ clone 22; [4]) was 6 pg/mL, the “IFN-γ production … of clone 22” value (LB1158 CD4+ clone 22; [5]) was 1345 pg/mL and the “IFN-γ production … of clone 22” value (LB1158 CD4+ clone 22; [6]) was 3967 pg/mL. The “IFN-γ production … of clone 22” value (LB1158 CD4+ clone 22; [7]) was 1250 pg/mL, the “IFN-γ production … of clone 22” value (LB1158 CD4+ clone 22; [8]) was greater than 4000 pg/mL and the “IFN-γ production … of clone 22” value (LB1158 CD4+ clone 22; [9]) was 3865 pg/mL. The “IFN-γ production … of clone 22” value (LB1158 CD4+ clone 22; [10]) was greater than 4000 pg/mL, the “IFN-γ production … of clone 22” value (LB1158 CD4+ clone 22; [11]) was 0 pg/mL and the “IFN-γ production … of clone 22” value (LB1158 CD4+ clone 22; [12]) was 2030 pg/mL. The “IFN-γ production … of clone 22” value (LB1158 CD4+ clone 22; [13]) was 0 pg/mL, the “IFN-γ production … of clone 22” value (LB1158 CD4+ clone 22; [14]) was 3651 pg/mL and the “IFN-γ production … of clone 22” value (LB1158 CD4+ clone 22; [15]) was 6 pg/mL. The “IFN-γ production … of clone 22” value (LB1158 CD4+ clone 22; [16]) was 0 pg/mL, the “IFN-γ production … of clone 22” value (LB1158 CD4+ clone 22; [17]) was 0 pg/mL and the “IFN-γ production … of clone 22” value (LB1158 CD4+ clone 22; [18]) was 4 pg/mL. The “IFN-γ production … of clone 22” value (LB1158 CD4+ clone 22; [19]) was 49 pg/mL, the “IFN-γ production … of clone 22” value (LB1158 CD4+ clone 22; [20]) was 56 pg/mL and the “stimulation of clone 22” value (LB1158 CD4+ clone 22; similar experiments) was “also stimulated”.

B1: MAGE-A3: MAGE-A3 protein; recombinant His-MAGE-A3 produced in E. coli, or expressed from MFG MAGE-A3 retrovirus in Example 6 (protein, listed as Homo sapiens)
chain: MPLEQRSQHCKPEEGLEARGEALGLVGAQAPATEEQEAASSSSTLVEVTLGEVPAAESPDPPQSPQGASSLPTTMNYPLWSQSYEDSSNQEEEGPSTFPDLESEFQAALSRKVAELVHFLLLKYRAREPVTKAEMLGSVVGNWQYFFPVIFSKASSSLQLVFGIELMEVDPIGHLYIFATCLGLSYDGLLGDNQIMPKAGLLIIVLAIIAREGDCAPEEKIWEELSVLEVFEGREDSILGDPKKLLTQHFVQENYLEYRQVPGSDPACYEFLWGPRALVETSYVKVLHHMVKISGGPHISYPPLHEWVLREGEE
modifications: His tag
For B1, the “IFN-γ secretion by clone 2 upon stimulation with protein-loaded autologous EBV-B cells” value (7002 CD4+ clone 2) was “secreted IFN-γ” and the “IFN-γ secretion by clone 22 upon stimulation with protein-loaded autologous EBV-B cells” value (LB1158 CD4+ clone 22) was “secreted IFN-γ”.
